# Laboratory results: patent US20250098679A1, “HERBICIDAL PYRIDONE DERIVATIVES” (SYNGENTA CROP PROTECTION AG, priority 2021, published 2025)
# Experiments:
# Assay type in all cases: in vivo
# Conditions in all cases: evaluated after 13 days
# [1] = system: Echinochloa crus-galli (ECHCG); test: Pre-emergence Test, Echinochloa crus-galli (ECHCG)
# [2] = system: Echinochloa crus-galli (ECHCG); test: Post-emergence Test, Echinochloa crus-galli (ECHCG); set-up: key to percentage damage caused to the plant, ECHCG (five-point scale): 5=81-100%, 4=61-80%, 3=41-60%, 2=21-40%, 1=0-20% damage
# How it was run: (§1)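 Pots sprayed with compound in acetone/water (50:50) with 0.5% Tween 20, at 1000 g/ha unless noted, glasshouse 24/16 °C, 14 h light, 65% humidity. Damage scored 13 days after spraying on a five-point scale (5=81-100% to 1=0-20%).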
# [3] = system: Amaranthus retoflexus (AMARE); test: Pre-emergence Test, Amaranthus retoflexus (AMARE)
# [4] = system: Ipomoea hederacea (IPOHE); test: Pre-emergence Test, Ipomoea hederacea (IPOHE)
# [5] = system: Amaranthus retoflexus (AMARE); test: Post-emergence Test, Amaranthus retoflexus (AMARE); set-up: key to percentage damage caused to the plant, AMARE (five-point scale): 5=81-100%, 4=61-80%, 3=41-60%, 2=21-40%, 1=0-20% damage
# How it was run: as §1
# Zea mays (ZEAMX) [6] = test: Post-emergence Test, Zea mays (ZEAMX); set-up: key to percentage damage caused to the plant, ZEAMX (five-point scale): 5=81-100%, 4=61-80%, 3=41-60%, 2=21-40%, 1=0-20% damage
# How it was run: as §1
# Zea mays (ZEAMX) [7] = test: Pre-emergence Test, Zea mays (ZEAMX)
# Setaria faberi (SETFA) [8] = test: Pre-emergence Test, Setaria faberi (SETFA)
# [9] = system: Ipomoea hederacea (IPOHE); test: Post-emergence Test, Ipomoea hederacea (IPOHE); set-up: key to percentage damage caused to the plant, IPOHE (five-point scale): 5=81-100%, 4=61-80%, 3=41-60%, 2=21-40%, 1=0-20% damage
# How it was run: as §1
# [10] = system: Amaranthus palmeri (AMAPA); test: Post-emergence Test, Amaranthus palmeri (AMAPA); set-up: key: 5=81-100%, 4=61-80%, 3=41-60%, 2=21-40%, 1=0-20% damage
# How it was run: as §1
# Setaria faberi (SETFA) [11] = test: Post-emergence Test, Setaria faberi (SETFA); set-up: key to percentage damage caused to the plant, SETFA (five-point scale): 5=81-100%, 4=61-80%, 3=41-60%, 2=21-40%, 1=0-20% damage
# How it was run: as §1
# [12] = system: Amaranthus palmeri (AMAPA); test: Pre-emergence Test, Amaranthus palmeri (AMAPA)
Structure (SMILES),"Pre-emergence Test ECHCG, percentage damage caused to the plant (five-point scale) ([1]; 1000 g/ha)","percentage damage caused to the plant, ECHCG (five-point scale) ([2]; 250 g/Ha)","Pre-emergence Test AMARE, percentage damage caused to the plant (five-point scale) ([3]; 1000 g/ha)","Pre-emergence Test IPOHE, percentage damage caused to the plant (five-point scale) ([4]; 1000 g/ha)","percentage damage caused to the plant, AMARE (five-point scale) ([5]; 250 g/Ha)","percentage damage caused to the plant, AMARE (five-point scale) ([5]; 1000 g/ha)","percentage damage caused to the plant, ZEAMX (five-point scale) (Zea mays (ZEAMX) [6]; 250 g/Ha)","percentage damage caused to the plant, ZEAMX (five-point scale) (Zea mays (ZEAMX) [6]; 1000 g/ha)","Pre-emergence Test ZEAMX, percentage damage caused to the plant (five-point scale) (Zea mays (ZEAMX) [7]; 1000 g/ha)","Pre-emergence Test SETFA, percentage damage caused to the plant (five-point scale) (Setaria faberi (SETFA) [8]; 1000 g/ha)","percentage damage caused to the plant, IPOHE (five-point scale) ([9]; 250 g/Ha)","percentage damage caused to the plant, IPOHE (five-point scale) ([9]; 1000 g/ha)","percentage damage caused to the plant, AMAPA (five-point scale) ([10]; 250 g/Ha)","percentage damage caused to the plant, AMAPA (five-point scale) ([10]; 1000 g/ha)","percentage damage caused to the plant, SETFA (five-point scale) (Setaria faberi (SETFA) [11]; 1000 g/ha)","Pre-emergence Test AMAPA, percentage damage caused to the plant (five-point scale) ([12]; 1000 g/ha)","Pre-emergence Test ECHCG, percentage damage caused to the plant (five-point scale) ([1]; 250 g/Ha (*))","percentage damage caused to the plant, ECHCG (five-point scale) ([2]; 1000 g/ha)","Pre-emergence Test AMARE, percentage damage caused to the plant (five-point scale) ([3]; 250 g/Ha (*))","Pre-emergence Test IPOHE, percentage damage caused to the plant (five-point scale) ([4]; 250 g/Ha (*))",other results
"CCn1c(Cn2nc(C(F)(F)F)cc2C(F)(F)F)cc(=O)c(C(=O)O)c1-c1ccc(Cl)c(Cl)c1 [Compound 135, 6-[[3,5-bis(trifluoromethyl)pyrazol-1-yl]methyl]-2-(3,4-dichlorophenyl)-1-ethyl-4-oxo-pyridine-3-carboxylic acid]",1 (1=0-20%),1 (1=0-20%),1 (1=0-20%),2 (2=21-40%),1 (1=0-20%),2 (2=21-40%),1 (1=0-20%),2 (2=21-40%),1 (1=0-20%),0,2 (2=21-40%),3 (3=41-60%),1 (1=0-20%),1 (1=0-20%),4 (4=61-80%),0,–,–,–,–,–
"CCOC(=O)c1c(-c2ccc(Cl)c(Cl)c2)n(CC)c(Cn2ccc(Cl)n2)cc1=O [Compound 3, ethyl 6-[(3-chloropyrazol-1-yl)methyl]-2-(3,4-dichlorophenyl)-1-ethyl-4-oxo-pyridine-3-carboxylate]",4 (4=61-80%),1 (1=0-20%),1 (1=0-20%),0,1 (1=0-20%),1 (1=0-20%),0,2 (2=21-40%),0,5 (5=81-100%),4 (4=61-80%),2 (2=21-40%),1 (1=0-20%),2 (2=21-40%),3 (3=41-60%),0,1 (1=0-20%),3 (3=41-60%),0,0,"Pre-emergence Test ZEAMX, percentage damage caused to the plant (five-point scale) (Zea mays (ZEAMX) [7]; 250 g/Ha (*)): 0; Pre-emergence Test SETFA, percentage damage caused to the plant (five-point scale) (Setaria faberi (SETFA) [8]; 250 g/Ha (*)): 1 (1=0-20%); percentage damage caused to the plant, SETFA (five-point scale) (Setaria faberi (SETFA) [11]; 250 g/Ha): 2 (2=21-40%); Pre-emergence Test AMAPA, percentage damage caused to the plant (five-point scale) ([12]; 250 g/Ha (*)): 0"
"CCn1c(Cn2cnc([N+](=O)[O-])c2)cc(=O)c(C(=O)O)c1-c1ccc(Cl)c(Cl)c1 [Compound 50, 2-(3,4-dichlorophenyl)-1-ethyl-6-[(4-nitroimidazol-1-yl)methyl]-4-oxo-pyridine-3-carboxylic acid]",1 (1=0-20%),–,1 (1=0-20%),0,–,0,–,1 (1=0-20%),0,0,–,2 (2=21-40%),–,3 (3=41-60%),2 (2=21-40%),1 (1=0-20%),–,1 (1=0-20%),–,–,–
"CCn1c(Cn2cnc(OC)n2)cc(=O)c(C(=O)O)c1-c1ccc(Cl)c(Cl)c1 [Compound 44, 2-(3,4-dichlorophenyl)-1-ethyl-6-[(3-methoxy-1,2,4-triazol-1-yl)methyl]-4-oxo-pyridine-3-carboxylic acid]",2 (2=21-40%),–,2 (2=21-40%),1 (1=0-20%),–,0,–,1 (1=0-20%),0,1 (1=0-20%),–,2 (2=21-40%),–,3 (3=41-60%),1 (1=0-20%),3 (3=41-60%),–,1 (1=0-20%),–,–,–
CCn1c(Cn2ccc(C(F)F)n2)cc(=O)c(C(=O)O)c1-c1ccc(Cl)c(Cl)c1 [Compound 186],5 (5=81-100%),4 (4=61-80%),2 (2=21-40%),4 (4=61-80%),1 (1=0-20%),3 (3=41-60%),1 (1=0-20%),1 (1=0-20%),3 (3=41-60%),5 (5=81-100%),4 (4=61-80%),4 (4=61-80%),2 (2=21-40%),2 (2=21-40%),4 (4=61-80%),1 (1=0-20%),4 (4=61-80%),4 (4=61-80%),0,2 (2=21-40%),"Pre-emergence Test ZEAMX, percentage damage caused to the plant (five-point scale) (Zea mays (ZEAMX) [7]; 250 g/Ha (*)): 0; Pre-emergence Test SETFA, percentage damage caused to the plant (five-point scale) (Setaria faberi (SETFA) [8]; 250 g/Ha (*)): 5 (5=81-100%); percentage damage caused to the plant, SETFA (five-point scale) (Setaria faberi (SETFA) [11]; 250 g/Ha): 4 (4=61-80%); Pre-emergence Test AMAPA, percentage damage caused to the plant (five-point scale) ([12]; 250 g/Ha (*)): 0"
"CCn1c(Cn2cnc3ncccc32)cc(=O)c(C(=O)O)c1-c1ccc(Cl)c(Cl)c1 [Compound 125, 2-(3,4-dichlorophenyl)-1-ethyl-6-(imidazo[4,5-b]pyridin-1-ylmethyl)-4-oxo-pyridine-3-carboxylic acid]",–,1 (1=0-20%),–,–,1 (1=0-20%),–,1 (1=0-20%),–,–,–,1 (1=0-20%),–,0,–,–,–,0,–,0,0,"Pre-emergence Test ZEAMX, percentage damage caused to the plant (five-point scale) (Zea mays (ZEAMX) [7]; 250 g/Ha (*)): 0; Pre-emergence Test SETFA, percentage damage caused to the plant (five-point scale) (Setaria faberi (SETFA) [8]; 250 g/Ha (*)): 1 (1=0-20%); percentage damage caused to the plant, SETFA (five-point scale) (Setaria faberi (SETFA) [11]; 250 g/Ha): 1 (1=0-20%); Pre-emergence Test AMAPA, percentage damage caused to the plant (five-point scale) ([12]; 250 g/Ha (*)): 1 (1=0-20%)"
"CCn1c(Cn2cnc(C(F)(F)F)n2)cc(=O)c(C(=O)O)c1-c1ccc(Cl)c(Cl)c1 [Compound 7, 2-(3,4-dichlorophenyl)-1-ethyl-4-oxo-6-[[3-(trifluoromethyl)-1,2,4-triazol-1-yl]methyl]pyridine-3-carboxylic acid]",3 (3=41-60%),–,0,0,–,1 (1=0-20%),–,1 (1=0-20%),1 (1=0-20%),3 (3=41-60%),–,1 (1=0-20%),–,1 (1=0-20%),4 (4=61-80%),0,–,2 (2=21-40%),–,–,–
